# Test results: patent US20170020909A1, “METHODS OF TREATING GLAUCOMA USING AMP-ACTIVATED PROTEIN KINASE (AMPK) ACTIVATORS” (Massachusetts Eye and Ear Infirmary, priority 2014, published 2017)
# Legend:
# TSP-1 = assay: Immunoblot of TSP-1 in conditioned media of human TM cells; assay type: cell-based; details: 24 hours
# Experimental: (§1) FIGS. 5A-E. AICAR suppresses ECM proteins in primary human TM cells under basal and TGF-β2 stimulatory conditions. (A) Representative immunoblots of ECM proteins from conditioned media (CM) of human TM cells treated for 24 hours with PBS vehicle or 0.5 mM AICAR and (B) integrated band intensities calculated from those immunoblots. (C) Representative immunoblots of ECM proteins from CM of human TM cells under stimulation with 2.5 ng/mL TGF-β2. Cells were pre-incubated for 1 hour with PBS or 0.5 mM AICAR prior to full 24-hour treatment. (D) Mean integrated band intensities. Data in panels B and D are expressed as mean±SEM (*p<0.05 vs. PBS vehicle by student t-test; n=5-7). (E) Representative 10% acrylamide gels stained with Coomassie Brilliant Blue as a loading control. […]
# (§2) At the conclusion of each experiment for matricellular and ECM protein detection, conditioned media (CM) from TM cell cultures was harvested and centrifuged at 5000 rpm for 10 minutes at 4° C. The supernatant was then concentrated (Amicon Ultra-4 Filter Unit, 10 kDa; Millipore, Milford, Mass.), and protein content quantified using the DC Protein Assay kit adhering to manufacturer's protocols (Bio-Rad, Hercules, Calif.). […] Samples were then centrifuged at 14,000 rpm for 15 minutes at 4° C. and protein content quantified. […]
# SPARC = assay: Immunoblot of SPARC in conditioned media of human TM cells; assay type: cell-based; details: 24 hours
# Experimental: as §1, §2
# [1] = 0.5 mM AICAR vs PBS vehicle, basal
# [2] = 0.5 mM AICAR, under TGF-β2 stimulation with 2.5 ng/mL
smiles,measurement,setting,value
"NC(=O)c1ncn([C@@H]2O[C@H](CO)[C@@H](O)[C@H]2O)c1N [AICAR, 5-Aminoimidazole-4-carboxamide riboside]",change in TSP-1 (mean integrated band intensity),TSP-1; [1],no change
same,change in TSP-1 levels,TSP-1; [2],no change
same,change in SPARC (mean integrated band intensity),SPARC; [1],no change
same,decrease in SPARC level,SPARC; [2],64%
